Results as given in ChEMBL document CHEMBL1201862, “PubChem BioAssay data set” (2004).
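In this assay, cells in 96-well plates receive the compound at five concentrations for 48 hours. Endpoints are linearly interpolated between the surrounding concentrations. GI50 = concentration required for 50% inhibition of growth.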 Calls of active or inactive are those of the source. No stated cut-off is given here; in the data, active = GI50 up to about 1.1 µM and inactive = higher.

Key:
Test in all cases: inhibition of tumour cell growth, NCI panel, 48 h
A498 = test system: A498
SK-OV-3 = test system: SK-OV-3
HOP-92 = test system: HOP-92
KM12 = test system: KM12
ACHN = test system: ACHN
LOX IMVI = test system: LOX IMVI
SNB-19 = test system: SNB-19
U-251 = test system: U-251
SK-MEL-2 = test system: SK-MEL-2
A549 = test system: A549
SW-620 = test system: SW-620
HT-29 = test system: HT-29
HCT-116 = test system: HCT-116
CAKI-1 = test system: CAKI-1
SN12C = test system: SN12C
OVCAR-4 = test system: OVCAR-4
NCI-H226 = test system: NCI-H226
SK-MEL-5 = test system: SK-MEL-5

| SMILES | GI50 (A498) | GI50 (SK-OV-3) | GI50 (HOP-92) | GI50 (KM12) | GI50 (ACHN) | GI50 (LOX IMVI) | GI50 (SNB-19) | GI50 (U-251) | GI50 (SK-MEL-2) | GI50 (A549) | GI50 (SW-620) | GI50 (HT-29) | GI50 (HCT-116) | GI50 (CAKI-1) | GI50 (SN12C) | GI50 (OVCAR-4) | GI50 (NCI-H226) | GI50 (SK-MEL-5) |
| --- | --- | --- | --- | --- | --- | --- | --- | --- | --- | --- | --- | --- | --- | --- | --- | --- | --- | --- |
| CCCc1cc(OC(=O)c2c(O)cc(OC)cc2CCC)cc(O)c1C(=O)O | 28.9 µM (inactive) | 22.4 µM (inactive) | 13.5 µM (inactive) | 28.2 µM (inactive) | 27.9 µM (inactive) | 23.8 µM (inactive) | 25.1 µM (inactive) | 23.9 µM (inactive) | 20.5 µM (inactive) | 30.2 µM (inactive) | 37.9 µM (inactive) | 33 µM (inactive) | 17.4 µM (inactive) |  |  |  |  |  |
| Cc1nc2c3c(ccc2nc1O)C(=O)c1ccccc1C3=O | 20.3 µM (inactive) | 24.5 µM (inactive) | 96.2 µM (inactive) | 32.2 µM (inactive) | 24.4 µM (inactive) | 41.6 µM (inactive) | > 100 µM (inactive) | 54.1 µM (inactive) |  | 52 µM (inactive) | 56.2 µM (inactive) | > 100 µM (inactive) | 40 µM (inactive) | 25.3 µM (inactive) | 42.2 µM (inactive) | > 100 µM (inactive) | 29.2 µM (inactive) | > 100 µM (inactive) |
| CC1=C(C(=O)CC(=O)C(=O)Nc2ccc(C)c(C)c2)Sc2ccccc2N1 | > 100 µM (inactive) | > 100 µM (inactive) | > 100 µM (inactive) | > 100 µM (inactive) | > 100 µM (inactive) | > 100 µM (inactive) | > 100 µM (inactive) | > 100 µM (inactive) |  | > 100 µM (inactive) | > 100 µM (inactive) | > 100 µM (inactive) | > 100 µM (inactive) | > 100 µM (inactive) | > 100 µM (inactive) | > 100 µM (inactive) | > 100 µM (inactive) | > 100 µM (inactive) |
| O=[PH](O)c1cc2c3ccccc3ccc2c2ccccc12 |  | > 100 µM (inactive) |  | > 100 µM (inactive) |  | > 100 µM (inactive) | > 100 µM (inactive) | > 100 µM (inactive) |  | > 100 µM (inactive) | > 100 µM (inactive) | > 100 µM (inactive) | > 100 µM (inactive) |  | > 100 µM (inactive) | > 100 µM (inactive) | 13.9 µM (inactive) | > 100 µM (inactive) |
| COc1cc2c(cc1OC)C1C=NC(C(=O)O)(C2)c2ccccc21 (stereo not drawn) | > 100 µM (inactive) | > 100 µM (inactive) | > 100 µM (inactive) | > 100 µM (inactive) |  | > 100 µM (inactive) | > 100 µM (inactive) | > 100 µM (inactive) |  | > 100 µM (inactive) | > 100 µM (inactive) | > 100 µM (inactive) | > 100 µM (inactive) | > 100 µM (inactive) | > 100 µM (inactive) | > 100 µM (inactive) | > 100 µM (inactive) | > 100 µM (inactive) |
| CN1C(=O)C(=CN)C(=O)N(C)C1=O |  |  | > 100 µM (inactive) | > 100 µM (inactive) | > 100 µM (inactive) | > 100 µM (inactive) | > 100 µM (inactive) | > 100 µM (inactive) | > 100 µM (inactive) | > 100 µM (inactive) | > 100 µM (inactive) | > 100 µM (inactive) |  | > 100 µM (inactive) | > 100 µM (inactive) | > 100 µM (inactive) | > 100 µM (inactive) | > 100 µM (inactive) |
| Cc1ccc2c(c1)CNc1ccc(C)cc1CN2 |  | > 100 µM (inactive) | > 100 µM (inactive) | > 100 µM (inactive) | > 100 µM (inactive) | > 100 µM (inactive) | < 0.01 µM (active) | > 100 µM (inactive) | > 100 µM (inactive) | > 100 µM (inactive) | > 100 µM (inactive) | > 100 µM (inactive) | > 100 µM (inactive) | > 100 µM (inactive) | > 100 µM (inactive) | > 100 µM (inactive) | > 100 µM (inactive) | 62.4 µM (inactive) |
